Measurements: the supplement of paper PMC10949913
Values joined by “and” are separate entries in the source; they are usually repeats but may differ in a detail not shown here. Equal values may be shown once.

Key:
Conditions in all cases: 48 h
CU-ACC2 [1] = experiment: AC50 viability; higher = less potent
Procedure, shortened: (§1)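 Concentration-response curves were fitted to obtain AC50 and area under the curve, keeping inhibitory or non-responding curve classes only. Data came from CellTiter-Glo luminescence, normalised per plate to vehicle and empty-well controls, in three adrenocortical carcinoma cell lines. These were treated in 1,536-well plates with library compounds at 11 concentrations and read after 48 h.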

CU-ACC1 [2] = experiment: AC50 viability; higher = less potent
Procedure, shortened: as §1

NCI-H295R [3] = experiment: AC50 viability; higher = less potent
Procedure, shortened: as §1

CU-ACC2 [4] = experiment: area under concentration-response curve (viability) (AUC (a.u.)); higher = less active
Procedure, shortened: as §1

CU-ACC1 [5] = experiment: as above
Procedure, shortened: as §1

NCI-H295R [6] = experiment: as above
Procedure, shortened: as §1

Row | SMILES | AC50 viability (CU-ACC2 [1]) [µM] | AC50 viability (CU-ACC1 [2]) | AC50 viability (NCI-H295R [3]) [µM] | area under concentration-response curve (CU-ACC2 [4]) | area under concentration-response curve (CU-ACC1 [5]) | area under concentration-response curve (NCI-H295R [6])
1 | CCCCCCC(C)(C)C1=CC2=C([C@H]3CC(=C/CC3C(C)(C)O2)\CO)C(=C1)O (stereo partly specified) | 5.9 | 5.9 µM | 4.17 | 497 | 442 | 458
2 | Nc1ccc(C(=O)c2cc3c(ccc4ccccc43)[nH]2)cc1 | 38.2 | 6.05 µM | 12.1 | 471 | 466 | 419
3 | COc1cccc2c1C(=O)c1c(O)c3c(c(O)c1C2=O)C[C@@](O)(C(=O)CO)C[C@@H]3O[C@H]1C[C@H](N)[C@@H](O)[C@H](C)O1 | 8.33 | 10.5 µM | 18.6 | 507 | 424 | 510
4 | CCOC(=O)CCNc1cc(N2CCc3ccccc3CC2)nc(-c2ccccn2)n1 | 16.6 | 3.32 µM | 3.72 | 534 | 384 | 444
5 | Cc1nc(Nc2ncc(C(=O)Nc3c(C)cccc3Cl)s2)cc(N2CCN(CCO)CC2)n1 | 23.5 | 29.5 µM | 23.5 | 461 | 448 | 446
6 | O=C(Nc1ncc(SCCN2CCCC2)s1)[C@]1(c2ccc([S+](=O)([O-])C3CC3)cc2)C[C@H]1C1CCCCC1 | 26.3 | 13.2 µM | 10.5 | 507 | 442 | 437
7 | Cc1ccc2nc(NCCN)c3ncc(C)n3c2c1 | 10.5 | 14.8 µM | 14.8 | 369 | 413 | 423
8 | Cc1ccc(NC(=O)c2ccc3c(c2)OCCO3)cc1NC(=O)c1ccc2nc(OCCN3CCCC3)ccc2c1 | 0.456 | 6.45 µM | 2.88 | 373 | 303 | 398
9 | COc1cccc2c1C(=O)c1c(O)c3c(c(O)c1C2=O)C[C@@](O)(C(=O)CO)C[C@@H]3O[C@H]1C[C@H](N)[C@H](O[C@H]2CCCCO2)[C@H](C)O1 | 6.61 | 5.25 µM and 9.34 µM | 20.9 | 168 and 501 | 230 and 410 | 435
10 | N[C@@H](Cc1ccc(N(CCCl)CCCl)cc1)C(=O)O | 9.34 | 10.5 µM | 9.34 | 303 | 267 | 385
11 | Cc1ccc(NC(=O)NCc2ccc3c(c2)CN(C2CCC(=O)NC2=O)C3=O)cc1Cl (stereo unspecified) | 0.0332 | 0.00372 µM | 0.0166 | 289 | 137 | 234
12 | CN(C)Cc1c(C(=O)NCCOc2ccc(C(=O)NO)cc2)oc2ccccc12 | 1.48 | 1.48 µM | 1.32 | 425 | 412 | 412
13 | C1CCC(C(CC2CCCCN2)C2CCCCC2)CC1 (stereo unspecified) | 11.8 | 8.33 µM | 9.34 | 460 | 398 | 414
14 | O=C1c2c(O)ccc(O)c2C(=O)c2c(NCCNCCO)ccc(NCCNCCO)c21 | 9.34 | 16.6 µM | 14.8 | 512 | 458 | 514
15 | Cc1cc2c(C(N)=O)cccc2n1-c1nc2c(c(NCc3ccccc3)n1)COCC2 | 2.09 | 3.32 µM | 2.63 | 467 | 306 | 436
16 | CCN(CC)CCNC(=O)c1c(C)[nH]c(/C=C2/C(=O)Nc3ccc(-c4csc(-c5ccccc5)n4)cc32)c1C | 9.34 | 13.2 µM | 7.42 | 521 | 369 | 453
17 | COC1=CC2=NC=CC(=C2C=C1)OC3=CN=C(NC(=O)C/4=C(C)/N(CC(C)(C)O)N(C4=O)C5=CC=CC=C5)C=C3 | 18.6 | 23.5 µM | 14.8 | 350 | 354 | 369
18 | COc1cc(N2CCC(N)CC2)ccc1Nc1ncc(Cl)c(-c2c[nH]c3ccccc23)n1 | 5.9 | 9.34 µM | 1.18 | 357 | 386 | 318
19 | CN(C)CCOc1ccc(-c2nc(-c3ccncc3)c(-c3ccc4c(c3)CC/C4=N\O)[nH]2)cc1 | 20.9 | 16.6 µM | 14.8 | 521 | 398 | 440
20 | COc1cc(N2CCN(C)CC2)ccc1Nc1nccc(-c2cn(C)c3cnccc23)n1 | 18.6 | 33.2 µM | 20.9 | 507 | 451 | 464
21 | O=C1NCCc2[nH]c(-c3ccncc3)cc21 | 1.86 | 3.32 µM | 4.68 | 406 | 338 | 423
22 | C/C=C1\NC(=O)[C@H]2CSSCC/C=C\[C@H](CC(=O)N[C@H](C(C)C)C(=O)N2)OC(=O)[C@H](C(C)C)NC1=O | 0.0235 | 0.00742 µM | 0.118 | 224 | 235 | 293
23 | Nc1ncnc2c1c(-c1cnc3[nH]ccc3c1)nn2C1CCCC1 | 13.2 | 5.9 µM | 5.9 | 338 | 395 | 414
24 | C[C@@H](NC(=O)c1ncnc(N)c1Cl)c1ncc(C(=O)Nc2cc(C(F)(F)F)c(Cl)cn2)s1 | 18.6 | 18.6 µM | 18.6 | 316 | 295 | 318
25 | O=C(Nc1cc(C(F)(F)F)cc(C(F)(F)F)c1)c1cc(Cl)ccc1O | 1.86 | 2.63 µM | 2.95 | 493 | 429 | 463
26 | CCNC(=O)c1cc2c(-c3cc(OCCN4CCCC4)c(Cl)cc3Cl)nc(N)nc2s1 | 5.74 | 5.12 µM | 2.57 | 445 | 431 | 433
